# Data: US20110230476A1, “PI3 KINASE INHIBITORS AND USES THEREOF” (AVILA THERAPEUTICS, INC., priority 2009, published 2011)
# Columns and labels:
# Phospho-Akt(Ser473) [1] = test: Dose response in SKOV3 cells as determined by in-cell Western; type: cell-based; conditions: Homo sapiens, SK-OV-3; SKOV3 cells, 1 hr; read-out: pAKT Inhibition in cell Western
# Procedure, shortened: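 SKOV3 cells treated with compound for 1 hr, then formaldehyde-fixed, permeabilised and stained overnight for phospho-Akt(Ser473) with anti-tubulin as a reference. Infrared secondary antibodies read at 680 and 800 nm channels by in-cell Western imaging.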
# SKOV3 cells = test: GI50 determinations in SKOV3 cells; type: cell-based; conditions: Homo sapiens, SK-OV-3; SKOV3 cells, 96 hours, Cell Titer Glo
# Procedure: GI50 Determinations in SKOV3 Cells
# A standard curve ranging from 10,000 to 50,000 cells was set up in a separate plate and allowed to adhere to the plate for 4-6 hours, at which time the plate was developed using Cell Titer-Glow (Promega, Madison, Wis.) according to manufacturer's instructions.
# The next morning, 3-fold compound dilutions ranging from 10,000 nM to 40 nM were prepared in Proliferation Media containing 1% DMSO. 20 ul of each dilution was added to the SKOV3 cells plated the previous day resulting in a dose response curve from 1000 nM to 4 nM. The cells were incubated for 96 hours and then developed with Cell Titer Glo.
# The cell numbers at the end of the assay were determined using the standard curve generated at the start of the assay. Growth inhibition was calculated using the following formulas and GI50s were determined by plotting the % growth inhibition vs. Log compound concentration in GraphPad.
# %growth=100×(T−T0)/(C−T0)
# T=Cell Number at end of assay T0=Cell Number at start of assay (5000) C=Number of cells in DMSO controls at end of assay
# %growth inhibition=100−%growth
# PI3Kα (p110α/p85α) = target: T1, PI3Kα (p110α/p85α) (Homo sapiens, UniProt P42336); test: HTRF assay, potency against active PI3Kα; type: biochemical; conditions: HTRF; [ATP]=50 μM, [di-C8-PIP2]=10 μM; 30 min pre-incubation; read-out: PI3Kα Inhibition
# T1 construct: purchased BPS Bioscience (San Diego, Calif.) or Millipore (Billerica, Mass.)
# T1 sequence (P42336 whole entry): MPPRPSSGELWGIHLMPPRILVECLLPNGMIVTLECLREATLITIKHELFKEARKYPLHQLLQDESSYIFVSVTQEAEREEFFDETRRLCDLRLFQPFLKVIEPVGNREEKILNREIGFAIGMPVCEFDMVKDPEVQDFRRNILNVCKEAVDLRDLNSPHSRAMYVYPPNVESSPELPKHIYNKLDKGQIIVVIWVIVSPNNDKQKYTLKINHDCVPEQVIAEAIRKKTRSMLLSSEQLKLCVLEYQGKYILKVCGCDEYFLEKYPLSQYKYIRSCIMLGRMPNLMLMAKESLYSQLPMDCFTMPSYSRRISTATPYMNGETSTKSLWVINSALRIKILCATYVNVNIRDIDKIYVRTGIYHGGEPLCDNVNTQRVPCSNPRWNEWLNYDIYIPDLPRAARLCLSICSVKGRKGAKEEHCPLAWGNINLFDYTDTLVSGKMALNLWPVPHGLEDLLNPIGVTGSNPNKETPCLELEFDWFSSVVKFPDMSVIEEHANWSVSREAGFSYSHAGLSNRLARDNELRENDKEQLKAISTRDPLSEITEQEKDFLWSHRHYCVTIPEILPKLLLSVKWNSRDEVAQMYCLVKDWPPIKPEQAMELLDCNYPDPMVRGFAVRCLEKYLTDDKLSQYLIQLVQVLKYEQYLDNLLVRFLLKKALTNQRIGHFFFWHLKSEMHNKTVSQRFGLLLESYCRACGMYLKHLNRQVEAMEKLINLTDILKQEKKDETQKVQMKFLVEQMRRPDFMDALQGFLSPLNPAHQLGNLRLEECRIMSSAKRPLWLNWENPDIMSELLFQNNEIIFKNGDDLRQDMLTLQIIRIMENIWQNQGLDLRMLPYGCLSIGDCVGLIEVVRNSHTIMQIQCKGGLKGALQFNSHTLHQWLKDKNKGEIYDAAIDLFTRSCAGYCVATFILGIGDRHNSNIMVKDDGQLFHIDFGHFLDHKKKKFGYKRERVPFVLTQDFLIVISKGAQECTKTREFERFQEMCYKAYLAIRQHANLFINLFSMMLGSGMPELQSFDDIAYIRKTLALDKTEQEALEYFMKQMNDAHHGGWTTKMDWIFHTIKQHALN
# T1 sequence (P27986 whole entry partner): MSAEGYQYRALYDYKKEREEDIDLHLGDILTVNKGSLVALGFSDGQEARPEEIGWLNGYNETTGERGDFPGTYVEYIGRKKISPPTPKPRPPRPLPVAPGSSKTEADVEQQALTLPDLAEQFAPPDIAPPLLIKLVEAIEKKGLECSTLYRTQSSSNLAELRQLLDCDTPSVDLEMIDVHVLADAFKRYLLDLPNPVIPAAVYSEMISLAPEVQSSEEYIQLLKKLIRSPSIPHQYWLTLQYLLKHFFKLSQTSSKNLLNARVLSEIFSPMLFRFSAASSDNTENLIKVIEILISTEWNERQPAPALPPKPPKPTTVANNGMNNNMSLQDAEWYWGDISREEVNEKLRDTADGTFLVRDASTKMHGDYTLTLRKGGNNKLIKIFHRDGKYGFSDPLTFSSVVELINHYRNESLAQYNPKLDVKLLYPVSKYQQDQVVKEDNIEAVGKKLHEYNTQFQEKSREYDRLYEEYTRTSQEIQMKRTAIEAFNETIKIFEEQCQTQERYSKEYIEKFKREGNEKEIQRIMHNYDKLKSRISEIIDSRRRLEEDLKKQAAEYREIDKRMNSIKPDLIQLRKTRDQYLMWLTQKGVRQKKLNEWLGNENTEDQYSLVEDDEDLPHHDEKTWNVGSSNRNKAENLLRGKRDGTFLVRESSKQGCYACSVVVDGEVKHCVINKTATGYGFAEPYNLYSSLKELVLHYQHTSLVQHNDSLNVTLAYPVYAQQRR
# Procedure, shortened: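 Active p110/p85α lipid kinase reactions were started with ATP and run 30-60 minutes at 25 °C, then stopped and developed with HTRF detection mix. HTRF ratio converted to % inhibition against ±enzyme controls; IC50 from log[inhibitor] vs response, variable slope.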
# PI3Kα = PI3Kα (Homo sapiens, UniProt P42336); test: Mass spectrometry of intact PI3Kα (Millipore, 14-602), 1 hr incubation; type: binding; parameters: purchased Millipore 14-602; conditions: 10× fold excess of compound, MALDI
# PI3Kα, sequence (P42336 whole entry): as the sequence (P42336 whole entry) above
# PI3Kα, sequence (P27986 whole entry partner): as the sequence (P27986 whole entry partner) above
# Procedure: Mass Spectrometry for PI3K
# Aliquots (5 μl) of the samples were diluted with 15 μl of 0.2% TFA prior to micro C4 ZipTipping directly onto the MALDI target using Sinapinic acid as the desorption matrix (10 mg/ml in 0.1% TFA:Acetonitrile 50:50).
# PI3Kγ (p120γ) = target: T2, PI3Kγ (p120γ) (Homo sapiens, UniProt P48736); test: HTRF assay, potency against active PI3Kγ; type: biochemical; conditions: [ATP]=50 μM, [di-C8-PIP2]=10 μM, 30 min pre-incubation, read-out: PI3Kγ Inhibition
# T2 construct: purchased BPS Bioscience (San Diego, Calif.) or Millipore (Billerica, Mass.)
# T2 sequence (P48736 whole entry): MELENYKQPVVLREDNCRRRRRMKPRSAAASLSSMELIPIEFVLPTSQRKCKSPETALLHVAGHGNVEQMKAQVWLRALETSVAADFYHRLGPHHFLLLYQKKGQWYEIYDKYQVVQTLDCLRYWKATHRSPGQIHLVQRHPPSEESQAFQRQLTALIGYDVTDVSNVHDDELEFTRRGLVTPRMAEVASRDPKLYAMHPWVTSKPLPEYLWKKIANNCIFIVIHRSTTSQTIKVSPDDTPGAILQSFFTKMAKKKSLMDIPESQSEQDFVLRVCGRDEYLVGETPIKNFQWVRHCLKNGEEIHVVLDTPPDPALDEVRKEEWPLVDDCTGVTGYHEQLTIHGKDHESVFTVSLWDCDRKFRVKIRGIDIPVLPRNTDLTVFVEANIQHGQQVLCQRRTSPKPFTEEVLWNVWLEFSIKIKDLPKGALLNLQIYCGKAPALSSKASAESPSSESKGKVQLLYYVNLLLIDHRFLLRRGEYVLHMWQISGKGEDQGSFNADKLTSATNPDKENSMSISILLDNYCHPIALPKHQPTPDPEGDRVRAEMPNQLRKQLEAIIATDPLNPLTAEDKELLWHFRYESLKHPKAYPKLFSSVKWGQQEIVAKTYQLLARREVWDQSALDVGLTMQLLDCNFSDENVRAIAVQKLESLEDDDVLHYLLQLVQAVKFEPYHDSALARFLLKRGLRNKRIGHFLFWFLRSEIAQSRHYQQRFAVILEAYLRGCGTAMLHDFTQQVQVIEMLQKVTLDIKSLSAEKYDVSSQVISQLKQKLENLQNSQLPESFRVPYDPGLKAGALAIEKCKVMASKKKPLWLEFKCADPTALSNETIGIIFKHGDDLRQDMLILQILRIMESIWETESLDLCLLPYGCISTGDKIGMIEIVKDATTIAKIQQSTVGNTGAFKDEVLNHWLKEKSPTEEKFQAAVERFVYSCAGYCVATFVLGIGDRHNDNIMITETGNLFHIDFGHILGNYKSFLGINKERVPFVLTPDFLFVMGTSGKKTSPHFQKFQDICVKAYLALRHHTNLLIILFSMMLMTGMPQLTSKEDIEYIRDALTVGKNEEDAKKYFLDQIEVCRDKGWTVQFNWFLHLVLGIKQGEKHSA
# Procedure, shortened: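 End-point competition HTRF: enzyme (p110β/p85α 0.75 nM; p120γ 2-2.5 nM) with 10 μM di-C8-PIP2 pre-incubated 30 min at 25° C with compound, then 50 μM ATP added for 30-60 min at 25° C. Stopped, detected after 1 and 18 h; IC50 from variable-slope fit.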
# Phospho-Akt(Ser473) [2] = test: Dose response in SKOV3 cells as determined by Western blot; type: cell-based; conditions: Homo sapiens, SK-OV-3, 1 hr, Phospho-Akt normalized to total Akt, read-out: Immunoblot
# Procedure: Dose Response in SKOV3 Cells as Determined by Western Blot
# SKOV3 cells were plated in SKOV3 Growth Media (DMEM supplemented with 10% FBS and pen/strep) at a density of 4×10^5 cells per well of 12 well plates. Twenty four hours later the media was removed and replaced with 1 ml media containing test compound and 0.1% DMSO and cells were returned to the incubator for 1 hr. At the end of the hour, the media was removed and the cells were washed with PBS, then lysed and scraped into 30 ul of Cell Extraction Buffer (Biosource, Camarillo, Calif.) plus Complete Protease Inhibitor and PhosStop Phosphatase Inhibitor (Roche, Indianapolis, Ind.).
# Cell debris was spun down at 13,000×g for 1 minute and the supernatant was taken as the cell lysate. Protein concentration of the lysate was determined by BCA Assay (Pierce Biotechnology, Rockford, Ill.) and 50 ug of protein was loaded per well onto a NuPAGE Novex 4-12% Bis-Tris gel (Invitrogen, Carlsbad, Calif.) then transferred to Immobilon PVDF-FL (Millipore, Billerica, Mass.).
# The blot was blocked in Odyssey Blocking Buffer (Li-Cor Biosciences, Lincoln, Nebr.) for 1 hr then incubated overnight at 4° C. with mouse anti-Akt (#2920) and rabbit anti-Phospho-Akt(Ser473) (#9271)(Cell Signaling Technology, Boston, Mass.) antibodies, both diluted 1:1000 in PBS/Odyssey Buffer (1:1)+0.1% Tween-20. The blots were washed 3 times 5 minutes in PBS+0.2% Tween-20 then incubated for 1 hr at room temperature with fluorescently labeled secondary antibodies (Li-Cor) diluted 1:10000 in PBS/Odyssey Buffer (1:1)+0.1% Tween-20.
# The blots were washed 2 times for 5 minutes in PBS+0.2% Tween-20, once in distilled water, then scanned on an Odyssey machine (Li-Cor). Band intensity was determined using the Odyssey software and Phopho-Akt signal was normalized to total Akt within samples, then expressed as a percentage of the untreated Phospho-Akt signal.
SMILES,EC50 (Phospho-Akt(Ser473) [1]),GI50 (SKOV3 cells),IC50 (PI3Kα (p110α/p85α)),covalent modification of PI3Kα (PI3Kα),IC50 (PI3Kγ (p120γ)),EC50 (Phospho-Akt(Ser473) [2])
"C=C(CC)C(=O)CCC(=O)N1CCN(Cc2cc3nc(-c4cccc5[nH]ncc45)nc(N4CCOCC4)c3s2)CC1 [II-a-86, 1-(4-((2-(1H-indazol-4-yl)-4-morpholinothieno[3,2-d]pyrimidin-6-yl)methyl)piperazin-1-yl)-5-methyleneheptane-1,4-dione]",≤ 10 nM,10 to 100 nM,10 to 100 nM,,,
"C=CC(=O)Nc1ccc(C(=O)NCCOc2ccc3c(c2OC)N=C(NC(=O)c2cccnc2)N2CCN=C32)cc1 [IX-5, N-(8-(2-(4-acrylamidobenzamido)ethoxy)-7-methoxy-2,3-dihydroimidazo[1,2-c]quinazolin-5-yl)nicotinamide]",,10 to 100 nM,10 to 100 nM,,,
"O=C(/C=C(/c1ccccc1)C(F)(F)F)CCC(=O)N1CCN(Cc2cc3nc(-c4cccc5[nH]ncc45)nc(N4CCOCC4)c3s2)CC1 [II-a-158, (Z)-1-(4-((2-(1H-indazol-4-yl)-4-morpholinothieno[3,2-d]pyrimidin-6-yl)methyl)piperazin-1-yl)-7,7,7-trifluoro-6-phenylhept-5-ene-1,4-dione]",,100 to 1000 nM,10 to 100 nM,,,
"CNC(=O)Nc1ccc(-c2nc(N3CCOCC3)c3cnn(C4CCN(C(=O)CCC(=O)/C=C/c5ccccc5)CC4)c3n2)cc1 [VII-10, (E)-1-methyl-3-(4-(4-morpholino-1-(1-(4-oxo-6-phenylhex-5-enoyl)piperidin-4-yl)-1H-pyrazolo[3,4-d]pyrimidin-6-yl)phenyl)urea]",,10 to 100 nM,100 to 1000 nM,,,
"CC(C)=CC(=O)c1ccc(CCNC(=O)c2cc(-c3cnc(N)nc3C)nc(N3CCOCC3)c2)cc1 [XII-15, 2-(2-amino-4-methylpyrimidin-5-yl)-N-(4-(3-methylbut-2-enoyl)phenethyl)-6-morpholinoisonicotinamide]",,,100 to 1000 nM,similarly modify,,
"C=CC(=O)Nc1ccc(CC(=O)N2CC=C(c3cc(-c4cnc(N)nc4)nc(N4CCOCC4)c3)CC2)cc1 [XII-51, N-(4-(2-(4-(2-(2-aminopyrimidin-5-yl)-6-morpholinopyridin-4-yl)-5,6-dihydropyridin-1(2H)-yl)-2-oxoethyl)phenyl)acrylamide]",10 to 100 nM,,10 to 100 nM,similarly modify,,
"C=CC(=O)Nc1ccc(C(=O)N2CCC(n3ncc4c(N5CCOCC5)nc(-c5ccc(NC(=O)NC)cc5)nc43)CC2)cc1 [VII-8, N-(4-(4-(6-(4-(3-methylureido)phenyl)-4-morpholino-1H-pyrazolo[3,4-d]pyrimidin-1-yl)piperidine-1-carbonyl)phenyl)acrylamide]",100 to 1000 nM,100 to 1000 nM,100 to 1000 nM,,,
"C=CC(=O)Nc1ccc(C(=O)N2CCN(C(=O)c3cc4nc(-c5cccc6[nH]ncc56)nc(N5CCOCC5)c4s3)CC2)cc1 [II-a-143, N-(4-(4-(2-(1H-indazol-4-yl)-4-morpholinothieno[3,2-d]pyrimidine-6-carbonyl)piperazine-1-carbonyl)phenyl)acrylamide]",≤ 10 nM,100 to 1000 nM,100 to 1000 nM,,,
"C=CC(=O)Nc1ccc(CC(=O)N2CCC(n3ncc4c(N5CCOCC5)nc(-c5ccc(NC(=O)NC)cc5)nc43)CC2)cc1 [VII-9, N-(4-(2-(4-(6-(4-(3-methylureido)phenyl)-4-morpholino-1H-pyrazolo[3,4-d]pyrimidin-1-yl)piperidin-1-yl)-2-oxoethyl)phenyl)acrylamide]",100 to 1000 nM,100 to 1000 nM,100 to 1000 nM,,,
"C=CC(=O)Nc1cc(C(=O)N2CC=C(c3cc4nc(-c5cnc(N)nc5)nc(N5CCOCC5)c4s3)CC2)ccc1Cl [II-a-159, N-(5-(4-(2-(2-aminopyrimidin-5-yl)-4-morpholinothieno[3,2-d]pyrimidin-6-yl)-1,2,3,6-tetrahydropyridine-1-carbonyl)-2-chlorophenyl)acrylamide]",,100 to 1000 nM,10 to 100 nM,,,
"O=C(/C=C/c1ccccn1)CCC(=O)NCC12CCC(c3cc4nc(-c5cccc6[nH]ncc56)nc(N5CCOCC5)c4s3)(CC1)OC2 [II-a-163, (E)-N-((1-(2-(1H-indazol-4-yl)-4-morpholinothieno[3,2-d]pyrimidin-6-yl)-2-oxabicyclo[2.2.2]octan-4-yl)methyl)-4-oxo-6-(pyridin-2-yl)hex-5-enamide]",10 to 100 nM,100 to 1000 nM,> 1000 nM,,,
"C=CC(=O)Nc1ccc(C(=O)N2CC=C(c3cc4nc(-c5cnc(N)nc5)cc(N5CCOCC5)c4s3)CC2)cc1 [II-g-2, N-(4-(4-(5-(2-aminopyrimidin-5-yl)-7-morpholinothieno[3,2-b]pyridin-2-yl)-1,2,3,6-tetrahydropyridine-1-carbonyl)phenyl)acrylamide]",≤ 10 nM,100 to 1000 nM,100 to 1000 nM,,100 to 1000 nM,
"CC(C)=CC(=O)CCc1ccc(C#Cc2cc(-c3cnc(N)nc3C)nc(N3CCOCC3)c2)cc1 [XII-18, 1-(4-((2-(2-amino-4-methylpyrimidin-5-yl)-6-morpholinopyridin-4-yl)ethynyl)phenyl)-5-methylhex-4-en-3-one]",,,> 1000 nM,similarly modify,,
"C=CC(=O)Nc1ccc(C(=O)N2CCC3(CC2)CN(c2cc(-c4cnc(N)nc4)nc(N4CCOCC4)c2)C3)cc1 [XII-52, N-(4-(2-(2-(2-aminopyrimidin-5-yl)-6-morpholinopyridin-4-yl)-2,7-diazaspiro[3.5]nonane-7-carbonyl)phenyl)acrylamide]",100 to 1000 nM,,100 to 1000 nM,similarly modify,,
"CNC(=O)Nc1ccc(-c2nc(N3CCOCC3)c3cnn(C4CCN(C(=O)CCCC(=O)/C=C/c5ccccc5)CC4)c3n2)cc1 [VII-11, (E)-1-methyl-3-(4-(4-morpholino-1-(1-(5-oxo-7-phenylhept-6-enoyl)piperidin-4-yl)-1H-pyrazolo[3,4-d]pyrimidin-6-yl)phenyl)urea]",,100 to 1000 nM,100 to 1000 nM,,,
C=C(C)C(=O)CCCC(=O)N1CCN(Cc2cc3nc(-c4cccc5[nH]ncc45)nc(N4CCOCC4)c3s2)CC1 [II-a-14],≤ 10 nM,,10 to 100 nM,,> 1000 nM,10 to 100 nM
